Experimental data as given in patent US9169252B2 (BRISTOL-MYERS SQUIBB COMPANY, priority 2014, dated 2015).
Where two headings read alike, the source gives them in different places.

What was measured:
IRAK4 = IRAK4 (Homo sapiens (Human), UniProt Q9NWZ3); assay: IRAK4 Inhibition Assay; format: biochemical; conditions: ATP 500 μM; IRAK4 0.6 nM; read-out: IRAK4 IC50
How it was run: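 IRAK4 combined with fluorescent substrate and compounds, reacted 60 min at room temperature, stopped with 35 mM EDTA. Substrate and phosphorylated product separated electrophoretically on a Caliper LabChip 3000 mobility-shift reader.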

[1] = system: TLR2 induced IL-6 in peripheral blood mononuclear cells (PBMCs); assay: PBMC TLR2 Induced IL-6 Assay; format: cell-based, human; conditions: human PBMCs, lipoteichoic acid stimulated, IL-6 by ELISA; for IC50: read-out: Cell IC50; for EC50: read-out: Cell EC50
How it was run: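 Lipoteichoic acid at 10 µg/ml served as TLR2 stimulus for 5 hours, following a 30-minute compound pretreatment at 37° C. Cells were Ficoll-isolated human PBMCs, 250000 cells/well, cultured in RPMI plus 10% heat-inactivated FCS.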

IRAK4, sequence (Q9NWZ3 whole entry, species assumed): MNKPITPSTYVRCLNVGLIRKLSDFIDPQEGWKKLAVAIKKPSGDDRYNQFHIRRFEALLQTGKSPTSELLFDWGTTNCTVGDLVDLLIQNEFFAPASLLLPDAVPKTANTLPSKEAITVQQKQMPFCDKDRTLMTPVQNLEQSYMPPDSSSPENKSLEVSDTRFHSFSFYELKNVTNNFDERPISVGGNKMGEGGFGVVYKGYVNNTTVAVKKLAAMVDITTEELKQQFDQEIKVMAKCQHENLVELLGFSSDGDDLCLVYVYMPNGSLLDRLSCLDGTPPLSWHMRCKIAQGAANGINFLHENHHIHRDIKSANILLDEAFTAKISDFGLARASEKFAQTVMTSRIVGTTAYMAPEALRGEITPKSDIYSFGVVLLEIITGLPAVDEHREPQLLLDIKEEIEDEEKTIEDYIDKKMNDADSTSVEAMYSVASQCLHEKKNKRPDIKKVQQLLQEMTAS

CC(C)(O)[C@H](F)CNC(=O)c1cnc(-n2ccc3cc(C#N)cnc32)cc1N[C@H]1CC[C@H](C(N)=O)CC1 [Example 486]
IC50 (IRAK4): 1.2 nM
IC50 ([1]; Homo sapiens, PBMC): 177 nM

CC(C)Nc1cc(-n2ccc3cc(C#N)cnc32)ncc1C(=O)NCCC1(O)CCCC1 [Example 487]
IC50 (IRAK4): 2 nM
EC50 ([1]; Homo sapiens, PBMC): 34 nM
IC50 ([1]; Homo sapiens, PBMC): 111 nM

CC(C)(O)[C@H](F)CNC(=O)c1cnc(-n2ccc3cc(C#N)cnc32)cc1NC1CCC(NCC(F)(F)F)C1 (some centres unmarked) [Example 488]
IC50 (IRAK4): 6.8 nM
EC50 ([1]; Homo sapiens, PBMC): 208 nM
IC50 [1]: 379 nM

CC(C)(O)[C@H](F)CNC(=O)c1cnc(-n2ccc3cc(C#N)cnc32)cc1NC1CCC(NCC(F)(F)F)C1 (some centres unmarked) [Example 489]
IC50 (IRAK4): 4.3 nM
EC50 [1]: 318 nM
IC50 [1]: 1700 nM

CC(C)Nc1cc(-n2ccc3cc(C#N)cnc32)ncc1C(=O)NCC(F)C1(O)COC1 (centres unmarked) [Example 494]
IC50 (IRAK4): 3 nM
IC50 ([1]; Homo sapiens, PBMC): 289 nM

CC(C)Nc1cc(-n2ccc3cc(C#N)cnc32)ncc1C(=O)NCC(F)C1(O)COC1 (centres unmarked) [Example 495]
IC50 (IRAK4): 1.8 nM
IC50 [1]: 215 nM

CC(C)Nc1cc(-n2ccc3cc(C#N)cnc32)ncc1C(=O)N[C@H]1CC[C@H](C(C)(C)O)C1 [Example 497]
IC50 (IRAK4): 3.7 nM
IC50 ([1]; Homo sapiens, PBMC): 98 nM

CC(C)COC(=O)NCc1cnc2c(ccn2-c2cc(NC(C)C)c(C(=O)NC[C@@H](F)C(C)(C)O)cn2)c1 [Example 498]
IC50 (IRAK4): 5.7 nM
IC50 ([1]; Homo sapiens, PBMC): 248 nM

CCN(CC)C(=O)NCc1cnc2c(ccn2-c2cc(NC(C)C)c(C(=O)NC[C@@H](F)C(C)(C)O)cn2)c1 [Example 500]
IC50 (IRAK4): 13.2 nM
IC50 ([1]; Homo sapiens, PBMC): 546 nM

CCOC(=O)NCc1cnc2c(ccn2-c2cc(NC(C)C)c(C(=O)NC[C@@H](F)C(C)(C)O)cn2)c1 [Example 501]
IC50 (IRAK4): 5.4 nM
IC50 ([1]; Homo sapiens, PBMC): 332 nM

CC(C)Nc1cc(-n2ccc3cc(CNC(=O)OC(C)C)cnc32)ncc1C(=O)NC[C@@H](F)C(C)(C)O [Example 502]
IC50 (IRAK4): 4.8 nM
IC50 ([1]; Homo sapiens, PBMC): 366 nM

CC(C)CC(=O)NCc1cnc2c(ccn2-c2cc(NC(C)C)c(C(=O)NC[C@@H](F)C(C)(C)O)cn2)c1 [Example 503]
IC50 (IRAK4): 2.3 nM
IC50 ([1]; Homo sapiens, PBMC): 99 nM

CC(C)Nc1cc(-n2ccc3cc(CNC(=O)CC4CCCC4)cnc32)ncc1C(=O)NC[C@@H](F)C(C)(C)O [Example 504]
IC50 (IRAK4): 4.3 nM
IC50 ([1]; Homo sapiens, PBMC): 262 nM

CC(C)Nc1cc(-n2ccc3cc(CNC(=O)C4CC4)cnc32)ncc1C(=O)NC[C@@H](F)C(C)(C)O [Example 505]
IC50 (IRAK4): 13.5 nM
IC50 ([1]; Homo sapiens, PBMC): 559 nM

C[C@@H](F)CNc1cc(-n2ccc3cc(C#N)cnc32)ncc1C(=O)NC[C@@H](F)C(C)(C)O [Example 506]
IC50 (IRAK4): 1.5 nM
IC50 ([1]; Homo sapiens, PBMC): 65 nM

C[C@H](F)CNc1cc(-n2ccc3cc(C#N)cnc32)ncc1C(=O)NC[C@@H](F)C(C)(C)O [Example 507]
IC50 (IRAK4): 1.4 nM
IC50 ([1]; Homo sapiens, PBMC): 374 nM

CCCOC(=O)NCc1cnc2c(ccn2-c2cc(NC(C)C)c(C(=O)NC[C@@H](F)C(C)(C)O)cn2)c1 [Example 508]
IC50 (IRAK4): 2.8 nM
IC50 ([1]; Homo sapiens, PBMC): 224 nM

CC(C)(O)[C@H](F)CNC(=O)c1cnc(-n2ccc3cc(C#N)cnc32)cc1N[C@H]1C[C@H](C(C)(C)O)C1 [Example 509]
IC50 (IRAK4): 1.6 nM
IC50 ([1]; Homo sapiens, PBMC): 128 nM

CCCC(=O)NCc1cnc2c(ccn2-c2cc(NC(C)C)c(C(=O)NC[C@@H](F)C(C)(C)O)cn2)c1 [Example 510]
IC50 (IRAK4): 3.2 nM
IC50 ([1]; Homo sapiens, PBMC): 250 nM

CC(C)Nc1cc(-n2ccc3cc(CNC(=O)CC4CCCCC4)cnc32)ncc1C(=O)NC[C@@H](F)C(C)(C)O [Example 511]
IC50 (IRAK4): 5.4 nM
IC50 ([1]; Homo sapiens, PBMC): 47 nM

CC(C)CCC(=O)NCc1cnc2c(ccn2-c2cc(NC(C)C)c(C(=O)NC[C@@H](F)C(C)(C)O)cn2)c1 [Example 512]
IC50 (IRAK4): 3.5 nM
IC50 ([1]; Homo sapiens, PBMC): 541 nM

CCCNC(=O)NCc1cnc2c(ccn2-c2cc(NC(C)C)c(C(=O)NC[C@@H](F)C(C)(C)O)cn2)c1 [Example 513]
IC50 (IRAK4): 5.9 nM
IC50 ([1]; Homo sapiens, PBMC): 389 nM

CC(C)Nc1cc(-n2ccc3cc(CNC(=O)NCc4ccccc4)cnc32)ncc1C(=O)NC[C@@H](F)C(C)(C)O [Example 514]
IC50 (IRAK4): 8.2 nM
IC50 ([1]; Homo sapiens, PBMC): 47 nM

CC(C)Nc1cc(-n2ccc3cc(CNC(=O)Cc4ccccc4)cnc32)ncc1C(=O)NC[C@@H](F)C(C)(C)O [Example 515]
IC50 (IRAK4): 2.2 nM
IC50 ([1]; Homo sapiens, PBMC): 542 nM

CCCCNC(=O)NCc1cnc2c(ccn2-c2cc(NC(C)C)c(C(=O)NC[C@@H](F)C(C)(C)O)cn2)c1 [Example 516]
IC50 (IRAK4): 8.6 nM
IC50 ([1]; Homo sapiens, PBMC): 414 nM

CC(C)(F)[C@H](F)CNC(=O)c1cnc(-n2ccc3cc(C#N)cnc32)cc1Nc1cccc(O)c1 [Example 517]
IC50 (IRAK4): 1.2 nM
IC50 ([1]; Homo sapiens, PBMC): 113 nM

CC(C)Nc1cc(-n2ccc3cc(CNC(=O)CC4CCOCC4)cnc32)ncc1C(=O)NC[C@@H](F)C(C)(C)O [Example 518]
IC50 (IRAK4): 14 nM
IC50 ([1]; Homo sapiens, PBMC): 94 nM

CC(C)Nc1cc(-n2ccc3cc(CNC(=O)CC(C)(C)C)cnc32)ncc1C(=O)NC[C@@H](F)C(C)(C)O [Example 519]
IC50 (IRAK4): 2.7 nM
IC50 ([1]; Homo sapiens, PBMC): 126 nM

CC(C)Nc1cc(-n2ccc3cc(CNC(=O)C4CCOC4)cnc32)ncc1C(=O)NC[C@@H](F)C(C)(C)O (some centres unmarked) [Example 520]
IC50 (IRAK4): 10.5 nM
IC50 ([1]; Homo sapiens, PBMC): 347 nM

CC(C)(O)c1cnc(Nc2cc(-n3ncc4cc(C#N)cnc43)ncc2C(=O)NC[C@@H](F)C(C)(C)O)s1 [Example 521, (R)-6-(5-Cyano-1H-pyrazolo[3,4-b]pyridin-1-yl)-N-(2-fluoro-3-hydroxy-3-methylbutyl)-4-((5-(2-hydroxypropan-2-yl)thiazol-2-yl)amino)nicotinamide]
IC50 (IRAK4): 3.5 nM
EC50 ([1]; Homo sapiens, PBMC): 460 nM

CC(C)(O)[C@H](F)CNC(=O)c1cnc(-n2ncc3cc(C#N)cnc32)cc1Nc1cccc(C#N)c1 [Example 522]
IC50 (IRAK4): 2.6 nM
EC50 ([1]; Homo sapiens, PBMC): 177 nM

CC(C)(O)[C@H](F)CNC(=O)c1cnc(-n2ncc3cc(C#N)cnc32)cc1Nc1ccc2ncsc2c1 [Example 524]
IC50 (IRAK4): 2.6 nM
EC50 ([1]; Homo sapiens, PBMC): 132 nM

CC(C)(O)[C@H](F)CNC(=O)c1cnc(-n2ncc3cc(C(N)=O)cnc32)cc1Nc1ccc2ncoc2c1 [Example 525]
IC50 (IRAK4): 1.6 nM
EC50 ([1]; Homo sapiens, PBMC): 253 nM

CC(C)(O)[C@H](F)CNC(=O)c1cnc(-n2ncc3cc(C#N)cnc32)cc1Nc1ccc(-n2cncn2)cc1 [Example 526]
IC50 (IRAK4): 3.7 nM
EC50 ([1]; Homo sapiens, PBMC): 113 nM

Cn1nnnc1-c1ccc(Nc2cc(-n3ncc4cc(C#N)cnc43)ncc2C(=O)NC[C@@H](F)C(C)(C)O)cc1 [Example 527]
IC50 (IRAK4): 3 nM
EC50 ([1]; Homo sapiens, PBMC): 228 nM

CC(C)(O)[C@H](F)CNC(=O)c1cnc(-n2ncc3cc(C#N)cnc32)cc1Nc1cccc(C#N)c1F [Example 528]
IC50 (IRAK4): 3.3 nM
EC50 ([1]; Homo sapiens, PBMC): 91 nM
IC50 ([1]; Homo sapiens, PBMC): 326 nM

Cn1cc(-c2ccc(Nc3cc(-n4ncc5cc(C#N)cnc54)ncc3C(=O)NC[C@@H](F)C(C)(C)O)cc2)cn1 [Example 531]
IC50 (IRAK4): 2.2 nM
IC50 ([1]; Homo sapiens, PBMC): 67 nM

CC(C)(O)[C@H](F)CNC(=O)c1cnc(-n2ncc3cc(C#N)cnc32)cc1N[C@@H]1CCN(c2ncc(F)cn2)C1 [Example 532, 6-(5-Cyano-1H-pyrazolo[3,4-b]pyridin-1-yl)-N—((R)-2-fluoro-3-hydroxy-3-methylbutyl)-4-(((R)-1-(5-fluoropyrimidin-2-yl)pyrrolidin-3-yl)amino)nicotinamide]
IC50 (IRAK4): 5.5 nM
EC50 [1]: 127 nM

CC(C)(O)[C@H](F)CNC(=O)c1cnc(-n2ncc3cc(C#N)cnc32)cc1N[C@H]1CCN(c2ncc(F)cn2)C1 [Example 533]
IC50 (IRAK4): 10.3 nM
EC50 ([1]; Homo sapiens, PBMC): 194 nM

CC(C)(O)[C@H](F)CNC(=O)c1cnc(-n2ncc3cc(C#N)cnc32)cc1NC1CCN(c2ccccc2)CC1 [Example 535]
IC50 (IRAK4): 4 nM
EC50 ([1]; Homo sapiens, PBMC): 185 nM

COc1cnc(N2CC[C@@H](Nc3cc(-n4ncc5cc(C#N)cnc54)ncc3C(=O)NC[C@@H](F)C(C)(C)O)C2)nc1 [Example 536]
IC50 (IRAK4): 8.1 nM
EC50 ([1]; Homo sapiens, PBMC): 189 nM

CC(C)(O)[C@H](F)CNC(=O)c1cnc(-n2ncc3cc(C#N)cnc32)cc1N[C@@H]1CCN(c2ncccn2)C1 [Example 537]
IC50 (IRAK4): 6.8 nM
EC50 ([1]; Homo sapiens, PBMC): 159 nM

CC(C)(O)[C@H](F)CNC(=O)c1cnc(-n2ncc3cc(C#N)cnc32)cc1N[C@@H]1CCN(C(=O)c2ccc(F)cc2F)C1 [Example 538]
IC50 (IRAK4): 9.6 nM
IC50 ([1]; Homo sapiens, PBMC): 698 nM

CC(C)(O)[C@H](F)CNC(=O)c1cnc(-n2ncc3cc(C#N)cnc32)cc1NC1CN(c2ncc(F)cn2)C1 [Example 539]
IC50 (IRAK4): 6.3 nM
EC50 ([1]; Homo sapiens, PBMC): 256 nM
